Patent publication US20240252477A1, “NLRP3 INFLAMMASOME-INHIBITING COMPOUNDS AND THE USE THEREOF” (UNIVERSITA' DEGLI STUDI DI TORINO (60%), priority 2021, published 2024)
Values belong to the molecule of their own block, whether it stands above or below them.

Assays:
Cytotoxicity (MTT assay) = format: cell-based, human; conditions: human; THP-1 cells, 72 hours' incubation
Description: (§1) The THP-1 cells were seeded in a 96-well plate (15.000 cells/well) and incubated with the test compounds at four different concentrations (0.1, 1, 10 and 100 μM), operating in triplicate. The cells were placed in an incubator at 37° C., with 5% CO2, and cell viability was measured after 72 hours' incubation, using the MTT assay. This is a colorimetric assay, based on conversion of water-soluble 3-(4,5-dimethylthiazol-2-yl)-2,5-diphenyltetrazolium bromide (MTT; Sigma-Aldrich) to a violet-coloured insoluble formazan, by the mitochondrial dehydrogenase present in the live cells. The formazan is solubilised in acidified isopropanol, and the concentration is determined by measuring absorbance with a microplate reader (Victor X4—Ensight, PerkinElmer) at λ=570 nm. Viability was expressed as a percentage of the viability of the control cells, which were either untreated or treated with the carrier. The IC50 was calculated with the Graph Pad Prism software.

SAMP8 mice = test: SAMP8 mice, model of neurodegenerative disorders (Morris test, brain markers); format: in vivo; conditions: SAMP8, 50 mg/kg/day p.o., 2 months
Description: Compound INF176 was tested in vivo in an animal model of mice with spontaneous accelerated senescence (SAMP8), used as a model of neurodegenerative disorders such as mild cognitive impairment (MCI), which in most cases evolve to Alzheimer's disease (AD).

colon of SAMP8 animals = test: Colon contractions elicited by electrical stimuli (in vitro), SAMP8; parameters: species or system mice
NLRP3 inflammasome [1] = molecular target: T1, NLRP3 inflammasome (Homo sapiens, UniProt Q96P20); test: IL-1β release (ELISA) from differentiated THP-1 cells stimulated with LPS/ATP; format: cell-based; conditions: at the maximum concentration tested (FIG. 1B)
T1 construct: The THP-1 cells were differentiated into macrophages by treating them with PMA 50 nM; endogenous in cells; host or cells: THP-1 (human monocytic leukaemia line), PMA-differentiated, primed with LPS, triggered with ATP
T1 sequence (Q96P20 whole entry): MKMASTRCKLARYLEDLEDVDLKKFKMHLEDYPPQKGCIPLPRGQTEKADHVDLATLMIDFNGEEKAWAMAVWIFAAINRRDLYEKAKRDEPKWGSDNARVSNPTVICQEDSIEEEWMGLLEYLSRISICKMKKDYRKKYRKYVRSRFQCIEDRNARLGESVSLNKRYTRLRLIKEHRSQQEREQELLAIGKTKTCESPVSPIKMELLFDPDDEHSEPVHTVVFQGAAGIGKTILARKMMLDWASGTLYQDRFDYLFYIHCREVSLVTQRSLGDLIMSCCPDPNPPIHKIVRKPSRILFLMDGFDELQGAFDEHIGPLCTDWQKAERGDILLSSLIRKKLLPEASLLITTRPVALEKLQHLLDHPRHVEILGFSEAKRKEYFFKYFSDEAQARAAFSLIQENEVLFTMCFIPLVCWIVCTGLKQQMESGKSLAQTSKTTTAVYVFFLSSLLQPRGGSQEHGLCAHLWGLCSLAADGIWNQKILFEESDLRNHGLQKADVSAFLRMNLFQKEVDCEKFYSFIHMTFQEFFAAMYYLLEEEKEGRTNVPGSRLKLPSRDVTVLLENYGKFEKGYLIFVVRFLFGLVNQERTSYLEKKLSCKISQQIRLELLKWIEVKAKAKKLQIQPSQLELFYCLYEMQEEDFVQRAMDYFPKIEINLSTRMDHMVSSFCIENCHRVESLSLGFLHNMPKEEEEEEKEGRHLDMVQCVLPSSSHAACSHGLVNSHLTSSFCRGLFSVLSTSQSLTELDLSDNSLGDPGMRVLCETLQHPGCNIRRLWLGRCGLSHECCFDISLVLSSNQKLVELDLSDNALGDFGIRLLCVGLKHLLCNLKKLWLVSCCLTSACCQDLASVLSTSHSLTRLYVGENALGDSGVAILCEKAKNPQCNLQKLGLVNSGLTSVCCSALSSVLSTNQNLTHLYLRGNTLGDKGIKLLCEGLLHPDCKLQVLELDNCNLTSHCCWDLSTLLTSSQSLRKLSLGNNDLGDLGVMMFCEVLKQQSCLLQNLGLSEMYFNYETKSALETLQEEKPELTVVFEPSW
Description: (§2) THP-1 cells, a monocytic human cell line derived from the peripheral blood of a patient suffering from acute monocytic leukaemia (www.atcc.org), were cultured in RPMI 1640 medium (Aurogene, Rome, Italy), with the addition of foetal bovine serum (10%, Aurogene), L-glutamine (2 mM, Aurogene), penicillin (100 IU/ml, Aurogene) and streptomycin ([…], Aurogene). The medium was changed every 2-3 days, and the cells were maintained in an incubator at 37° C., with 5% CO2, and with suitable humidity.
The cells were seeded in 48-well plates (90.000 cells/well), and differentiated with phorbol 12-myristate 13-acetate (PMA—50 nM, 24 hours; Sigma-Aldrich). On the next day, the differentiated THP-1s were washed twice with the balanced saline solution phosphate-buffered saline (PBS), and stimulated with lipopolysaccharide (LPS) (10 μg/mL, 4 hours; Sigma-Aldrich), prepared in serum-free medium. […]
IL-1β release into the supernatant of cells treated as described above was determined with the Human IL-1 beta Uncoated ELISA kit (Invitrogen, Waltham, MA, USA), according to the manufacturer's instructions. […]
The interleukin levels were determined by measuring absorbance at X=450 nm, using a microplate reader (Victor X4—EnSight).

[2] = system: murine model of colitis induced by dextran sodium sulphate (DSS); test: Colitis induced by dextran sodium sulphate (DSS), murine model; format: in vivo; conditions: 25 mg/kg/day and 50 mg/kg/day p.o.
Description: In particular, oral administration (p.o.) of INF176 at the doses of 25 mg/kg/day and 50 mg/kg/day gave rise to an improvement in the systemic and tissue parameters associated with colitis (FIGS. 2-3).

NLRP3 inflammasome [3] = molecular target: T1, NLRP3 inflammasome; test: NLRP3-dependent pyroptosis (LDH release) in PMA-differentiated THP-1 cells stimulated with LPS/ATP; format: cell-based; conditions: compounds at 10 μM for 1 hour, differentiated THP-1, LPS 10 μg/mL 4 hours, ATP 1.5 hours; for inhibition at 10 µM: read-out: Pyroptosis inhibition (% ± SEM)
Description: as §2
The cells were seeded in 48-well plates (90.000 cells/well), and differentiated with phorbol 12-myristate 13-acetate (PMA—50 nM, 24 hours; Sigma-Aldrich). On the next day, the differentiated THP-1s were washed twice with the balanced saline solution phosphate-buffered saline (PBS), and stimulated with lipopolysaccharide (LPS) (10 μg/mL, 4 hours; Sigma-Aldrich), prepared in serum-free medium. After 4 hours the cells were incubated with the compounds at the concentration of 10 μM for 1 hour, operating in triplicate; INF176 and INF177 were tested at three different concentrations: […]. Finally, the cells were stimulated with ATP 5 mm for 1.5 hours. The supernatants were then harvested for the subsequent analyses.
LDH release into the supernatant obtained as described above was quantified using the CytoTox 96 nonradioactive cytotoxicity assay (Promega Corporation, Madison, […], USA), a colorimetric assay wherein LDH activity is measured with an NADH-dependent enzymatic reaction:
Briefly, an equal volume of CytoTox Reagent was added to the supernatant and, after 30 minutes' incubation, the reaction was stopped by adding the stop solution. The formazan concentration was determined by measuring absorbance, using a microplate reader (Victor X4—EnSight, PerkinElmer, Waltham, MA, USA), at λ=490 nm. Cell death was expressed according to the manufacturer's instructions.
The compound INF176 was tested to measure its ability to inhibit NLRP3-dependent cell pyroptosis in human macrophages, using the experimental protocol previously published [Cocco et al. 2017].
The THP-1 cells were differentiated into macrophages by treating them with PMA 50 nM (24 hours) and then with LPS (10 μg/mL) for 4 hours. The cells were treated with the compound (10 μM) for 1 hour. Pyroptosis was induced by treatment with ATP 5 mm. After 90 minutes, cell death was evaluated by measuring the LDH level in the cell supernatant using the CytoTox 96 Non-Radioactive Cytotoxicity Assay (Promega Corporation, Madison, […], USA).

SAMP8 animals = test: SAMP8 animals: colon transit and colon IL-1β; format: in vivo, mice
[4] = Stability in PBS pH 7.4 with excess glutathione or cysteamine (HPLC); format: physicochemical; conditions: 100 μM, PBS pH 7.4, 37° C.
Description: The compound INF177 was incubated at the concentration of 100 μM in PBS pH 7.4 (0.1% DMSO) at 37° C., in the absence and in the presence of excess glutathione or cysteamine (10×). The reaction mixture underwent repeated HPLC analyses over 24 hours.
The HPLC analysis was conducted with an HP 1200 chromatography system (Agilent Technologies, Palo Alto, CA, USA) consisting of an integrated quaternary pump (model G1311A), degasser (model G1322A), UV MWD detector (model G1365D) and fluorescence detector (model G1321A). The data were processed with the HP ChemStation system program (Agilent Technologies).
The analyses were conducted using the ZORBAX SB-Phenyl column (250×4.6 mm, 5 μm; Agilent) as stationary phase and CH3CN/H2O (+0.1% HCOOH), 70/30 (v/v), flow rate=1.0 mL/min, as mobile phase, injecting 20 μL of sample (Rheodyne, Cotati, CA); the chromatograms were acquired at the wavelengths of 234 and 250 nm.

THP-1 cells = test: Cytotoxicity (MTT assay); format: cell-based, human
Description: as §1

IL-1beta = molecular target: T2, IL-1beta (Homo sapiens, UniProt P01584); conditions: cited from earlier work
T2 construct: host or cells: patients (clinical trial)

inhibition at 10 µM (NLRP3 inflammasome [3]): < 10%
Molecule: CCOC(=O)C1CCN(C(=O)C(CSC2CCCCC2)Cc2ccccc2Cl)CC1 (centres unmarked) [INF193, ethyl 1-(2-(2-chlorobenzyl)-3-(cyclohexylthio)propanoyl)piperidine-4-carboxylate]
IC50 at 72 h (Cytotoxicity (MTT assay)): 77.5 ± 7.3 µM

inhibition at 10 µM (NLRP3 inflammasome [3]): < 10%
Molecule: CCOC(=O)C1CCCN(C(=O)/C(=C/c2ccccc2Cl)CSC2CCCCC2)C1 (centres unmarked) [INF194, ethyl (Z)-1-(3-(2-chlorophenyl)-2-((cyclohexylthio)methyl)acryloyl)piperidine-3-carboxylate]
IC50 at 72 h (Cytotoxicity (MTT assay)): 78.3 ± 10.2 µM

melting point: 60.5 to 61.4 °C
inhibition at 10 µM (NLRP3 inflammasome [3]): 13 ± 8.2%
Molecule: NC(=O)C1CCCN(C(=O)/C(=C/c2ccccc2Cl)CSc2ccccc2)C1 (centres unmarked) [INF219, (Z)-1-(3-(2-chlorophenyl)-2-((phenylthio)methyl)acryloyl)piperidine-3-carboxamide]
IC50 at 72 h (Cytotoxicity (MTT assay)): > 100 µM

Further lines, the molecule ahead of its results:

Molecule: CCOC(=O)C1CCCN(C(=O)/C(=C/c2ccccc2Cl)CSc2ccccc2)C1 (centres unmarked) [INF176, ethyl (Z)-1-(3-(2-chlorophenyl)-2-((phenylthio)methyl)acryloyl)piperidine-3-carboxylate]
IC50 at 72 h (Cytotoxicity (MTT assay)): 94.2 ± 6.9 µM
cognitive decline (Morris test: escape latency, crossings in quadrant, entries into quadrant) (SAMP8 mice): significantly counteracts cognitive decline
expression of p-tau protein in brain tissues (SAMP8 mice): significantly reduces expression of p-tau protein
cholinergic colon contractions (colon of SAMP8 animals; SAMP8, 50 mg/kg (FIG. 5)): significantly enhancing
tachykininergic colon contractions (colon of SAMP8 animals; SAMP8, 50 mg/kg (FIG. 5)): significantly enhancing
colon contractions elicited by electrical stimuli (colon of SAMP8 animals; SAMP8, 50 mg/kg (FIG. 5B)): significantly improves
inhibition of IL-1beta release from human macrophages (NLRP3 inflammasome [1]): 35±1.2%
body weight (weight loss) [2]: counteracts weight loss
disease activity index (DAI) [2]: significantly reduces
interleukin-1beta levels in colon tissues [2]: significantly reduces
myeloperoxidase levels in colon tissues [2]: significantly reduces
spleen weight [2]: counteracts weight loss and increased spleen weight
inhibition at 10 µM (NLRP3 inflammasome [3]): 45.2 ± 7.2%
colon transit (pellets expelled in 1 hour) (SAMP8 animals; SAMP8, 50 mg/kg (FIG. 5A)): improves slowing of colon transit
IL-1β levels in the colon (SAMP8 animals; SAMP8, 50 mg/kg (FIG. 6)): reduces the increase in IL-1β levels

Molecule: O=C(O)C1CCCN(C(=O)/C(=C/c2ccccc2Cl)CSc2ccccc2)C1 (centres unmarked) [INF177, (Z)-1-(3-(2-chlorophenyl)-2-((phenylthio)methyl)acryloyl)piperidine-3-carboxylic acid]
IC50 at 72 h (Cytotoxicity (MTT assay)): > 100 µM
reactivity towards glutathione or cysteamine ([4]; 10× excess thiol, over 24 hours): no appreciable reactivity was observed
% compound remaining ([4]; cysteamine 10×, after 2.5 hours): > 98%
% compound remaining ([4]; glutathione 10×, after 4 hours): > 98%
% compound remaining ([4]; glutathione or cysteamine 10×, 24 hours): ≥ 96%
inhibition at 10 µM (NLRP3 inflammasome [3]): 20.1 ± 9.8%

Molecule: CCOC(=O)C1CCN(C(=O)/C(=C/c2ccccc2Cl)CSC2CCCCC2)CC1 [INF188, ethyl (Z)-1-(3-(2-chlorophenyl)-2-((cyclohexylthio)methyl)acryloyl)piperidine-4-carboxylate]
IC50 at 72 h (Cytotoxicity (MTT assay)): 58.6 ± 5.3 µM
inhibition at 10 µM (NLRP3 inflammasome [3]): < 10%

Molecule: CCOC(=O)C1CCCN(C(=O)C(CSC2CCCCC2)Cc2ccccc2Cl)C1 (centres unmarked) [INF192, ethyl 1-(2-(2-chlorobenzyl)-3-(cyclohexylthio)propanoyl)piperidine-3-carboxylate]
IC50 at 72 h (Cytotoxicity (MTT assay)): 59.8 ± 0.7 µM
inhibition at 10 µM (NLRP3 inflammasome [3]): 62.2 ± 9.78%

Molecule: NS(=O)(=O)c1ccc(CCNC(=O)/C(=C/c2ccccc2Cl)CSc2ccccc2)cc1 [INF220, (Z)-3-(2-chlorophenyl)-2-((phenylthio)methyl)-N-(4-sulphamoylphenethyl)acrylamide]
IC50 at 72 h (Cytotoxicity (MTT assay)): > 62.5 µM
inhibition at 10 µM (NLRP3 inflammasome [3]): 73.9 ± 13.9%

Molecule: (Z)-3-(2-chlorophenyl)-2-((phenylthio)methyl)acrylic acid [INF80]
IC50 (THP-1 cells): 92.8 ± 1.6 µM
Pyroptosis inhibition (% ± SEM) (NLRP3 inflammasome [3]): <10%

Molecule: canakinumab
reduction in lung cancer deaths (IL-1beta; after treatment with canakinumab): 77%
change in mortality due to cardiovascular events (IL-1beta; patients at cardiovascular risk): −31%
